The source of these data is patent US10039806B2, “Methods and compositions for treating antiprogestin-resistant cancers” (Fundación Sales, priority 2011, dated 2018).

The test system of test [1] is MCF-7 cells. As to conditions: cited from earlier work.
For test [2], the system named is 59-2-HI tumor. As to the kind of experiment: MPA breast cancer model, responsive tumor in vivo. As to conditions: mouse.
Test [3] concerns mammary glands. As to conditions: 50 mg/every other day, three months; cited from earlier work.
The target in test [4] is T1, PR (Homo sapiens, UniProt P06401).
T1 sequence (P06401 1-933): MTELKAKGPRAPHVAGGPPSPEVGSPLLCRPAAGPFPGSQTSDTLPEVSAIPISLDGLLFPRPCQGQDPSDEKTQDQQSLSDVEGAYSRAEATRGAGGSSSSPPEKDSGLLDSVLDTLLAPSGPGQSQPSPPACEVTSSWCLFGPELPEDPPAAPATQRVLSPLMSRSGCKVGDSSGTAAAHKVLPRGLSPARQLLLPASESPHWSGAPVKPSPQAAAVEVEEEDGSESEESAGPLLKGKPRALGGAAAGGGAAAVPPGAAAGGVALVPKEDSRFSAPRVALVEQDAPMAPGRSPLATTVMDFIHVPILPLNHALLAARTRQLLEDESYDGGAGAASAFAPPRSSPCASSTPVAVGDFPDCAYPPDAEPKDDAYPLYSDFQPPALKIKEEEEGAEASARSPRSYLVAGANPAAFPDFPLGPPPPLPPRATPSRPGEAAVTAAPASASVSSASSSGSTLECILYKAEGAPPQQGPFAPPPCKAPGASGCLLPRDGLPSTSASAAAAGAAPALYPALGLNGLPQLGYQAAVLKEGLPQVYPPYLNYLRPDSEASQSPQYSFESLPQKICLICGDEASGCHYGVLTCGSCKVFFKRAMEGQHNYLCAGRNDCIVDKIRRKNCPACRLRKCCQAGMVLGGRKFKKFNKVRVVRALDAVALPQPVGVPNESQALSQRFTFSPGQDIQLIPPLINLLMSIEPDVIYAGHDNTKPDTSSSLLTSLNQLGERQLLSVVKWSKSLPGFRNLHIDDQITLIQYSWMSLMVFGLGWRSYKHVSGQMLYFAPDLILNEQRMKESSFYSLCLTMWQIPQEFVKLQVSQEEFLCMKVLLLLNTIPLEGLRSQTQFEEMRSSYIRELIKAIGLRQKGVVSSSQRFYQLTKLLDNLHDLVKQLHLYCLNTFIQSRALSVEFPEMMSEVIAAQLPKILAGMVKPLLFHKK
To be noted: T47D cells transfected with MMTV-CAT; cited from earlier work.

The test system of test [5] is C4-HI. Description: MPA breast cancer model, responsive tumor in vivo. Details: species or system mouse.
Test [6] relates to C4-2-HI tumors. As to the kind of experiment: Constitutive-resistant tumor transplanted s.c. in BALB/c mice. It counts as in vivo, mouse. On the procedure: (§1) C4-2-HI, 59-HI, and C4-HIR tumors were transplanted s.c nearby the mammary gland 4th in syngenic mice, and measured every 2 days (length and width). Treatments were initiated when the tumors were palpable. […] The mice were inoculated intraperitoneally (i.p.) with 0.75 mg/kg 5azadC (for C4-2-HI and C4-HIR tumors) or 1 mg/kg 5azadC (for 59-HI tumors) every other day. All the experiments were repeated twice using five mice per group. The animals were euthanized after 13 days of treatment, and tumor samples were removed and frozen at −80° C. or fixed in 10% formaldehyde.
(§2) Cytosolic or nuclear extracts were processed for western blots as described previously. The cells were lysed using Mammalian Protein Extraction Reagent (Pierce, Rockford, Ill.) according the manufacturer's instructions. The western blot membranes were incubated with antibodies against PR (C-19, Santa Cruz Biotech, CA, or Ab-7, Neomarkers, Lab Vision Corp, Fremont, Calif.), PRB (Ab-6, Neomarkers), ERKs (SC-94, Santa Cruz Biotech), E-Cad (610182, BD), Actin (1-19, Santa Cruz Biotech), DnmtI, Dnmt3a and Dnmt3b (H-300, H-295, and H-230, respectively, Santa Cruz Biotech), RARβ (SC-14028, Santa Cruz Biotech), PTEN Ab32199, Abcam), p16 (SC-1207, Santa Cruz Biotech), Rb (SC-50, Santa Cruz Biotech), or glucocorticoid receptors (GRs) (SC-1004, Santa Cruz Biotech) overnight at 4° C., at a concentration of 2 μg/ml in PBST (0.8% NaCl, 0.02% KCl, 0.144% Na2PO4, 0.024% KH2PO4, pH 7.4, 0.1% Tween 20). The band intensities from 3 to 4 different tumor samples indifferent western blots were quantified using Image Quant software.
(§3) Sections of formalin-fixed, paraffin-embedded tissue were processed as previously described and stained with the PRA-specific antibody (C-19) using the avidin-biotin-peroxidase complex technique (Vectastain Elite ABC kit; Vector), as described previously.
(§4) H&E stained sections of livers, spleens, and kidneys from the 5azadC-treated mice (1 mg/kg or 0.75 mg/kg/every other day; n=5) were studied by an expert mouse pathologist. The percentage of tumor stoma versus tumor parenchyma was quantified with the ImageJ software in treated and untreated tumors. The stromal area in relation to the total tumor area was calculated in five representative fields of each sample, using 400× magnification, in three different tumor samples of each group, and the mean±SEM was calculated. Mitotic and apoptotic indices were counted in 10 and 15 high-power fields (HPFs), respectively, of each section, using 1000× magnification, and expressed as the mean±SEM of the percentage of the ratios between the total number of events (mitosis or apoptosis) and the total cell number per HPF. Mitotic figures were identified morphologically by the condensed “hairy” aspect of the chromosomes. Morphological identification of apoptosis was performed according to criteria previously reported, which correlated with the deoxynucleotidyl transferase mediated dUTP-biotin nick end labeling (TUNEL) method.
(§5) C4-2-HI and 59-HI tumors were transplanted s.c nearby the mammary gland 4th in syngenic mice, and measured every 2 days (length and width). Treatments were initiated when the tumors were palpable. […] The mice were inoculated intraperitoneally (i.p.) with 0.75 mg/kg 5azadC every other day and s.c. with 1 mg/kg TSA every other day. All the experiments were repeated twice using five mice per group. The animals were euthanized after 13 days of treatment, and tumor samples were removed and frozen at −80 C or fixed in 10% formaldehyde.

The test system of test [7] is 59-HI tumors. The test is described as above. It counts as in vivo, mouse. To be noted: RU-486 12 mg/kg/day s.c.; 5azadC 1 mg/kg every other day i.p.; 13 days. Here is the method:
as §1, §2, §3, §4, §5

The test system of test [8] is T47D cells. As to conditions: cited from earlier work.
Test [9] relates to HI-responsive tumors. As to the kind of experiment: MPA breast cancer model, HI-responsive tumors in vivo. On the set-up: species or system mouse. As to conditions: 1 mg/kg/day.

As for `CC#C[C@]1(O)CC[C@H]2[C@@H]3CCC4=CC(=O)CCC4=C3[C@@H](c3ccc(N(C)C)cc3)C[C@@]21C` [RU-486, mifepristone], the E2-induced cell proliferation entry in test [1] (10 nM, 10% steroid-deficient human serum) is recorded as “inhibited E2-induced cell proliferation”; in test [8] (clone 11, ER- and PR-positive), “specifically inhibit E2-induced cell proliferation”. The PR-mediated cell proliferation entry in test [1] was “inhibited PR-mediated cell proliferation”. The progesterone-induced cell proliferation entry in [1] (nanomolar concentrations) was “inhibit progesterone-induced cell proliferation”. Besides, in [2], the “tumor regression (histology)” value is on record as “the tumor regresses”. For the same compound, in [3], the “cell proliferation in mammary gland aspirates” value is “Inhibition of cell proliferation”. For the same compound, the “effect in cells treated with analogs of cyclic AMP” value in [4] is recorded as “exerts an agonistic effect”. Further, the “differentiation (histology)” value in test [5] (mouse, in vivo) is given as “increase in differentiation”. The tumor growth result in [5] (tumors with higher PR-A than PR-B, FIG. 15) is reported as “completely inhibited”; in test [6] (RU-486 12 mg/kg/day s.c., 5azadC 0.75 mg/kg every other day i.p., 13 days), “no significant differences”; in test [7], “no significant differences”; in test [9] it was “inhibitory effects”. In test [6] (tumor only expresses PR-B, FIG. 15), the “tumor growth, MIF alone” value is “stimulated”. Further, the “effects on T47D cells” value in test [8] (5% FCS) was “inhibitory effects”. For the same compound, the “proliferation of T47D and MCF-7 cells” value in [8] (MIF at micromolar concentrations) is given as “stimulate the proliferation”.
